{"source": "ChEMBL document CHEMBL5365497", "about": "“Developing Novel Coumarin-Containing Azoles Antifungal Agents by the Scaffold Merging Strategy for Treating Azole-Resistant Candidiasis” (J Med Chem, 2023)", "key": {"Candida albicans [1]": {"system": "Candida albicans", "assay": "Antibiofilm activity against Candida albicans CPCC400616 incubated for 24 hrs by XTT reduction assay", "format": "functional, organism-based", "settings": "dose <= 128.0 µg/ml"}, "[2]": {"assay": "Stability in mouse plasma assessed as half life at 1 uM measured for 180 mins by LC-MS/MS analysis", "format": "ADME, cell-free"}, "[3]": {"assay": "Subacute toxicity in female KM mouse assessed as liver inflammation at 100 mg/kg administered via gavage daily for 14 days", "format": "organism-based", "settings": "in vivo, po, 336 h, time 14 day"}, "[4]": {"assay": "Subacute toxicity in male KM mouse assessed as focal infiltration of lymphocytes in kidney at 100 mg/kg administered via gavage daily for 7 days", "format": "organism-based", "settings": "in vivo, po, 168 h, time 7 day"}, "Candida albicans [5]": {"system": "Candida albicans", "assay": "Antifungal activity against Candida albicans CPCC400616 assessed as reduction in EFG1 expression at 2 ug/ml incubated for 12 hrs by RT-PCR analysis", "format": "functional, organism-based", "settings": "dose 2.0 µg/ml"}, "Candida albicans [6]": {"system": "Candida albicans", "assay": "Antifungal activity against fluconazole-resistant Candida albicans 904 assessed as reduction in ALS3 expression at 16 ug/ml incubated for 12 hrs by RT-PCR analysis", "format": "functional, organism-based", "settings": "dose 16.0 µg/ml"}, "[7]": {"assay": "Cytotoxicity against mouse J774.A1 cells assessed as cell growth inhibition by MTT assay", "format": "toxicity, cell-based"}, "[8]": {"assay": "Metabolic stability in mouse liver microsomes assessed as half life incubated for 5 to 60 mins by LC-MS/MS analysis", "format": "ADME, Microsome", "settings": "time 5-60 min"}, "[9]": {"assay": "Subacute toxicity in KM mouse assessed as abnormal behaviour at 100 mg/kg administered via gavage daily for 14 days", "format": "organism-based", "settings": "in vivo, po, 336 h, time 14 day"}, "[10]": {"molecular_target": "T1, Lanosterol 14-alpha demethylase (Candida albicans (strain SC5314 / ATCC MYA-2876) (Yeast), UniProt P10613)", "T1 sequence (P10613 whole entry)": "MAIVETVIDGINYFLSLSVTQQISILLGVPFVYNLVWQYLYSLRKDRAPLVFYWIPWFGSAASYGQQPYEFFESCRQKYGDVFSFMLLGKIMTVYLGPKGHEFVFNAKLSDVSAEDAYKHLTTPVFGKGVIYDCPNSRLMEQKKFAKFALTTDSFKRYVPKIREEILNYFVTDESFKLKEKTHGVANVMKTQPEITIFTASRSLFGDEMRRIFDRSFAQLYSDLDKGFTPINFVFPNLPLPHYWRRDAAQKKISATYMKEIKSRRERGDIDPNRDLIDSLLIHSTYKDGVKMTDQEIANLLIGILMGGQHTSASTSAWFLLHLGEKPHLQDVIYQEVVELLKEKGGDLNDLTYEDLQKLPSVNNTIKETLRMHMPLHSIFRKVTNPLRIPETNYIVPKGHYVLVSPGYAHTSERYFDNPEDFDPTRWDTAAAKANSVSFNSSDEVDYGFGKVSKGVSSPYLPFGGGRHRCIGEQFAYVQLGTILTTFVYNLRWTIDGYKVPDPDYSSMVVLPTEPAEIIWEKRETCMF", "assay": "Inhibition of CYP51 in Candida albicans SC5314 assessed as increase in lanosterol level at 0.03125 ug/ml incubated for 24 hrs by GC-MS analysis", "settings": "at 0.03125 µg/mL"}, "Candida albicans [11]": {"system": "Candida albicans", "assay": "Antibiofilm activity against fluconazole-resistant Candida albicans 904 incubated for 24 hrs by XTT reduction assay", "format": "functional, organism-based", "settings": "dose <= 128.0 µg/ml"}, "Candida tropicalis": {"system": "Candida tropicalis", "assay": "Antifungal activity against Candida tropicalis assessed as fungal growth inhibition by CLSI based microdilution method", "format": "functional"}, "[12]": {"molecular_target": "T1, Lanosterol 14-alpha demethylase", "assay": "Inhibition of CYP51 in Candida albicans SC5314 assessed as increase in eburicol level at 0.03125 ug/ml incubated for 24 hrs by GC-MS analysis", "settings": "at 0.03125 µg/mL"}, "Candida albicans [13]": {"system": "Candida albicans", "assay": "Antifungal activity against fluconazole-resistant Candida albicans 904 assessed as fungal growth inhibition measured for 48 hrs by CLSI based microdilution method", "format": "functional"}, "Candida albicans [14]": {"system": "Candida albicans", "assay": "Antifungal activity against Candida albicans SC5314 assessed as cell lysis at 16 ug/ml incubated for 24 hrs by TEM analysis", "format": "functional, organism-based", "settings": "dose 16.0 µg/ml"}, "Candida albicans [15]": {"system": "Candida albicans", "assay": "Antifungal activity against fluconazole-resistant Candida albicans 904 assessed as reduction in CPH1 expression at 16 ug/ml incubated for 12 hrs by RT-PCR analysis", "format": "functional, organism-based", "settings": "dose 16.0 µg/ml"}, "[16]": {"assay": "Subacute toxicity in female KM mouse assessed as kidney damage at 100 mg/kg administered via gavage daily for 7 days", "format": "organism-based", "settings": "in vivo, po, 168 h, time 7 day"}, "Candida albicans [17]": {"system": "Candida albicans", "assay": "Antifungal activity against fluconazole-resistant Candida albicans 901 assessed as fungal growth inhibition by CLSI based microdilution method", "format": "functional"}, "Candida albicans [18]": {"system": "Candida albicans", "assay": "Antifungal activity against fluconazole-resistant Candida albicans 904 assessed as fungal growth inhibition by CLSI based microdilution method", "format": "functional"}, "[19]": {"molecular_target": "T1, Lanosterol 14-alpha demethylase", "assay": "Inhibition of CYP51 in Candida albicans SC5314 assessed as ergosterol level at 0.03125 ug/ml incubated for 24 hrs by GC-MS analysis (reference value: 97.58 %)", "set-up": "scale not given: the % may be the effect or the level left", "settings": "at 0.03125 µg/mL"}, "[20]": {"assay": "Subacute toxicity in female KM mouse assessed as kidney inflammation at 100 mg/kg administered via gavage daily for 7 days", "format": "organism-based", "settings": "in vivo, po, 168 h, time 7 day"}, "Cryptococcus neoformans": {"system": "Cryptococcus neoformans", "assay": "Antifungal activity against Cryptococcus neoformans assessed as fungal growth inhibition by CLSI based microdilution method", "format": "functional"}, "[21]": {"assay": "Subacute toxicity in female KM mouse assessed as kidney damage at 100 mg/kg administered via gavage daily for 14 days", "format": "organism-based", "settings": "in vivo, po, 336 h, time 14 day"}, "Candida parapsilosis": {"system": "Candida parapsilosis", "assay": "Antifungal activity against Candida parapsilosis assessed as fungal growth inhibition by CLSI based microdilution method", "format": "functional", "settings": "Lodderomyces parapsilosis"}, "Cytochrome P450 2C9": {"molecular_target": "Cytochrome P450 2C9 (Homo sapiens, UniProt P11712)", "sequence (P11712 whole entry)": "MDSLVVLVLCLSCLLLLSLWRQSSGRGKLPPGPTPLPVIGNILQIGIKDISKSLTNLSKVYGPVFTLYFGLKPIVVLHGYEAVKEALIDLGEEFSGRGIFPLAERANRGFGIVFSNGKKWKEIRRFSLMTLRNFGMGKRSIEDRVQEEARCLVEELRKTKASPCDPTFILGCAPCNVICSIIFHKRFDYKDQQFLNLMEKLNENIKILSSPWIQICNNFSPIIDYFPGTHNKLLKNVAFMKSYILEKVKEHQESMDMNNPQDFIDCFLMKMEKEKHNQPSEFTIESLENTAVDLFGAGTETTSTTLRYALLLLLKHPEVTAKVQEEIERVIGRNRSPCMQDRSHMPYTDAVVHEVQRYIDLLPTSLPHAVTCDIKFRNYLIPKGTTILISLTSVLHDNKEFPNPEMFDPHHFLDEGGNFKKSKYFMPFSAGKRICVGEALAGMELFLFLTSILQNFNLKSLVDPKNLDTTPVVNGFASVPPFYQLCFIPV", "assay": "Inhibition of CYP2C9 in human liver microsomes using diclofenac as substrate preincubated for 5 mins followed by NADPH addition by LC-MS/MS analysis", "format": "ADME, Microsome"}, "Candida albicans [22]": {"system": "Candida albicans", "assay": "Antifungal activity against fluconazole-resistant Candida albicans 632 assessed as fungal growth inhibition by CLSI based microdilution method", "format": "functional"}, "Candida albicans [23]": {"system": "Candida albicans", "assay": "Antifungal activity against Candida albicans CPCC400616 assessed as inhibition of yeast to hypha morphological transition at 2 ug/ml incubated for 4 hrs by inverted microscopy", "format": "functional, organism-based", "settings": "dose 2.0 µg/ml"}, "Candida albicans [24]": {"system": "Candida albicans", "assay": "Antifungal activity against fluconazole-resistant Candida albicans 904 assessed as decrease in ERG11 expression at 16 ug/ml measured after 16 hrs by RT-PCR analysis", "format": "functional, organism-based", "settings": "dose 16.0 µg/ml"}}, "note": "The source made the active and inactive calls. The calls are words filed in the database; no cut-off is given here.", "data": [{"compound": "O=c1ccc2ccc(COC(Cn3ccnc3)c3ccc(Cl)cc3Cl)cc2o1", "note": "(stereo not drawn)", "values": [{"measurement": "Activity", "setting": "Candida albicans [1]", "result": "Dose-Dependent Effect"}, {"measurement": "half-life at 1 µM", "setting": "[2]", "result": "> 360", "unit": "min"}, {"measurement": "Activity", "setting": "[3]", "result": "Toxic"}, {"measurement": "Activity", "setting": "[4]", "result": "Toxic"}, {"measurement": "Activity", "setting": "Candida albicans [5]", "result": "Active"}, {"measurement": "Activity", "setting": "Candida albicans [6]", "result": "Active"}, {"measurement": "IC50", "setting": "[7]", "result": 24.4, "unit": "µM"}, {"measurement": "half-life", "setting": "[8]", "result": 15.2, "unit": "min"}, {"measurement": "Activity", "setting": "[9]", "result": "Non-Toxic"}, {"measurement": "inhibition (INH)", "setting": "[10]", "result": "Active"}, {"measurement": "Activity", "setting": "Candida albicans [11]", "result": "Dose-Dependent Effect"}, {"measurement": "MIC", "setting": "Candida tropicalis", "result": 0.25, "unit": "µg/mL"}, {"measurement": "inhibition (INH)", "setting": "[12]", "result": "Active"}, {"measurement": "MFC", "setting": "Candida albicans [13]", "result": 8, "unit": "µg/mL"}, {"measurement": "Activity", "setting": "Candida albicans [14]", "result": "Active"}, {"measurement": "Activity", "setting": "Candida albicans [15]", "result": "Active"}, {"measurement": "Activity", "setting": "[16]", "result": "Toxic"}, {"measurement": "MIC", "setting": "Candida albicans [17]", "result": 4, "unit": "µg/mL"}, {"measurement": "MIC", "setting": "Candida albicans [18]", "result": 1, "unit": "µg/mL"}, {"measurement": "Activity", "setting": "[19]", "result": 1.54, "unit": "%"}, {"measurement": "Activity", "setting": "[20]", "result": "Non-Toxic"}, {"measurement": "MIC", "setting": "Cryptococcus neoformans", "result": 2, "unit": "µg/mL"}, {"measurement": "Activity", "setting": "[21]", "result": "Non-Toxic"}, {"measurement": "MIC", "setting": "Candida parapsilosis", "result": 0.5, "unit": "µg/mL"}, {"measurement": "IC50", "setting": "Cytochrome P450 2C9", "result": 0.138, "unit": "µM"}, {"measurement": "MIC", "setting": "Candida albicans [22]", "result": 4, "unit": "µg/mL"}, {"measurement": "inhibition", "setting": "Candida albicans [23]", "result": "Active"}, {"measurement": "Activity", "setting": "Candida albicans [24]", "result": "Active"}]}]}
